# Test results from BindingDB's records for patent US20260028321 (Chong Kun Dang Pharmaceutical, 2026).
# Legend:
# Histone deacetylase 6 = target: T1, Histone deacetylase 6 (Homo sapiens, UniProt Q9UBN7); experiment: Inhibition of HDAC Enzyme Activity (In Vitro)
# T1 sequence (Q9UBN7 whole entry): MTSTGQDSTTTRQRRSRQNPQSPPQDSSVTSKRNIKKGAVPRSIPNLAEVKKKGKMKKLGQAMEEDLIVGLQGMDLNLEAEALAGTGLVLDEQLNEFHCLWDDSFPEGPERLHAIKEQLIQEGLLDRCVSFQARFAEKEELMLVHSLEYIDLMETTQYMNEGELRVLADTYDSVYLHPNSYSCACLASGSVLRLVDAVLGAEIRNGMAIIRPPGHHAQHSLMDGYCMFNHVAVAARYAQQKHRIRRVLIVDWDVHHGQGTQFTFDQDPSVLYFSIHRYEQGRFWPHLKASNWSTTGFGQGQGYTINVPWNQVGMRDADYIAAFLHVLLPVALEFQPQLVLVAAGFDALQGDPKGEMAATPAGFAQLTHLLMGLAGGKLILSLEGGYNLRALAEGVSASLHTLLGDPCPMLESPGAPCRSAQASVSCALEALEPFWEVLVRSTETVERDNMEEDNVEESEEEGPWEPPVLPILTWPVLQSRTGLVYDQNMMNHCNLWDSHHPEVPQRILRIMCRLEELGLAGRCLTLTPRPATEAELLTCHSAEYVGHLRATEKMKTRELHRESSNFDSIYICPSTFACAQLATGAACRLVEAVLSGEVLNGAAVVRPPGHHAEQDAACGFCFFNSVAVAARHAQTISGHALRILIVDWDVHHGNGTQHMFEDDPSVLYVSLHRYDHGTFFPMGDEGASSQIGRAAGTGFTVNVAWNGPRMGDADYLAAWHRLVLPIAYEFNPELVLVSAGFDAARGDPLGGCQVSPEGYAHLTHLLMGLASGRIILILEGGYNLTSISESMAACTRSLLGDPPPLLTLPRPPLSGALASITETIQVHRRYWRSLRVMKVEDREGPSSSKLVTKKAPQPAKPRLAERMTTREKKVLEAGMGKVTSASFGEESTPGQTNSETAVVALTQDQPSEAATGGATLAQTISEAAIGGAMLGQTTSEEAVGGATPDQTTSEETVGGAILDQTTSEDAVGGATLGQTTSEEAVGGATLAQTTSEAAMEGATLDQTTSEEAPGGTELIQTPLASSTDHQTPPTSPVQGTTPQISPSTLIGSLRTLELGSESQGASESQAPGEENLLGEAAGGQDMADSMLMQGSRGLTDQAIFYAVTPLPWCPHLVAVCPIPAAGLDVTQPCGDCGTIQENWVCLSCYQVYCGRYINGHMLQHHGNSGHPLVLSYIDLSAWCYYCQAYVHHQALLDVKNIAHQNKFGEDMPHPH
# Method: (§1) In the HDAC1 assay, the test substance was treated at concentrations of 100, 1000, and 10000 nM, and in the HDAC6 assay, the test substance was treated at concentrations of 0.1, 1, 10, 100, and 1000 nM.
# Histone deacetylase 1 = Histone deacetylase 1 (Homo sapiens, UniProt Q13547); experiment: Inhibition of HDAC Enzyme Activity (In Vitro)
# Chain of Histone deacetylase 1 (Q13547 whole entry): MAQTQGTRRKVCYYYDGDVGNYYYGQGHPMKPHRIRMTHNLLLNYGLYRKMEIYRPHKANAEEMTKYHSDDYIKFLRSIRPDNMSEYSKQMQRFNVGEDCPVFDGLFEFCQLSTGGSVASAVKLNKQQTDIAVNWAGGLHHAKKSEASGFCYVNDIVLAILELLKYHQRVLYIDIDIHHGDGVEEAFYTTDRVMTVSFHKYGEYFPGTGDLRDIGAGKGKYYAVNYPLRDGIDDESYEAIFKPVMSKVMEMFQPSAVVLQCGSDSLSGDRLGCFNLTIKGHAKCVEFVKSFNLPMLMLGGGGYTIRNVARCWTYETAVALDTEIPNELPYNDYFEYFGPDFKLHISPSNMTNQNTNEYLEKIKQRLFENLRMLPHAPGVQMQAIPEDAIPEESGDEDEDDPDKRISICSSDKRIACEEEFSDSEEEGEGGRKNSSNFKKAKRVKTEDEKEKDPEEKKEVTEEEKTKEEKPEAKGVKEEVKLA
# Method: as §1
smiles,measurement,setting,value
"CN1CCN(c2c(N(Cc3ccc(-c4nnc(C(F)F)o4)cc3F)c3cc(F)cc(-c4ccncc4)c3)c(=O)c2=O)CC1 [US20260028321, Compound 9]",IC50,Histone deacetylase 6,54 nM
same,IC50,Histone deacetylase 1,> 10000 nM
